Test results from patent publication US8471005B2 (Cephalon, Inc., priority 2008, dated 2013).
Like-named read-outs stand apart in the source and are kept apart here.

Legend:
ALK = target: T1, ALK (Homo sapiens, UniProt Q9UM73); assay: ALK Kinase Assay (ELISA/TRF, PLC-γ substrate); assay type: biochemical; conditions: read-out: ALK Potency
T1 construct: host or cells: baculovirus expression system
Method in brief: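 First, plates are coated with substrate (phospholipase C-γ, 10 μg/mL, TBS). Next, 30 ng/ml ALK initiates phosphorylation for 15 min at 37° C. Then Eu-N1 PT66 antibody is added for detection, and a nonlinear dose-response fit of percent inhibition yields IC50.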

JAK2 = target: T2, JAK2 (Homo sapiens, UniProt O60674); assay: Recombinant Human JAK2 Kinase Assay (TRF); assay type: biochemical; conditions: read-out: JAK2 Potency
T2 construct: host or cells: baculovirus expression system
T2 sequence (O60674 whole entry): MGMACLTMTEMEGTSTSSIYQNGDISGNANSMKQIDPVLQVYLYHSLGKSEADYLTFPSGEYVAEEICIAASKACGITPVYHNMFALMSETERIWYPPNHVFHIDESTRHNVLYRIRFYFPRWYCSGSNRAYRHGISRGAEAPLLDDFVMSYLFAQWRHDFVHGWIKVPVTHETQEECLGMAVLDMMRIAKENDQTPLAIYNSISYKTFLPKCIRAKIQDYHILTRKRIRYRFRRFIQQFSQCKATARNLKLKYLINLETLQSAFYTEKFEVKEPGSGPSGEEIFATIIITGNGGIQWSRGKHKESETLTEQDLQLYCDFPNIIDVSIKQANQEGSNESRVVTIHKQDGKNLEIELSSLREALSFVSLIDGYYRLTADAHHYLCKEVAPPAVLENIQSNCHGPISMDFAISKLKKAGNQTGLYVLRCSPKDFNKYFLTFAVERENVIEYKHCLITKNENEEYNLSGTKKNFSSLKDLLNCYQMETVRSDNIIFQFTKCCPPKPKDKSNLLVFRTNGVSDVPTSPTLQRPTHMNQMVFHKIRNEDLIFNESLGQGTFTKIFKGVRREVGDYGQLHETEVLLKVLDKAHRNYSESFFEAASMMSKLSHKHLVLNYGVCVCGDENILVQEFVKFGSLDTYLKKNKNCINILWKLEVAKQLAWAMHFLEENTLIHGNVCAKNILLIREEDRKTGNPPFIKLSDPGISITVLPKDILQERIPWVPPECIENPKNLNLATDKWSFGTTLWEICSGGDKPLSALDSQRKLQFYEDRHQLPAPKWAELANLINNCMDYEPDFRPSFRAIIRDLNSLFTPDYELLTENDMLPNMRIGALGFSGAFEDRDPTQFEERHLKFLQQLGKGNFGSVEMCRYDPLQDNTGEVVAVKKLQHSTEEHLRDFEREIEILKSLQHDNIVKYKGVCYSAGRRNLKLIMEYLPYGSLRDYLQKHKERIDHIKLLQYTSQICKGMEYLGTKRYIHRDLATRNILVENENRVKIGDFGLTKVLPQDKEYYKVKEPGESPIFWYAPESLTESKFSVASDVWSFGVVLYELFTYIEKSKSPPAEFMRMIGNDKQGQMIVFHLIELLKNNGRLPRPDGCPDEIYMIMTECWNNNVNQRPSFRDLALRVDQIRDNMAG
Method in brief: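 Baculovirus-expressed JAK2 (15 ng/ml) phosphorylated a biotinylated 15-mer peptide captured on Neutravidin, in 20 mM HEPES pH 7.2, 0.2 μM ATP, 1 mM MnCl2, 0.1% BSA, 2.5% DMSO final, 20 min at room temperature. Phosphoproduct detected by time-resolved fluorescence with Eu-N1-labelled PY100 antibody.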

[1] = ALK kinase inhibition, 1 μM ATP
[2] = JAK2 kinase inhibition, 0.2 μM ATP

T1 sequence (Q9UM73 19-1620): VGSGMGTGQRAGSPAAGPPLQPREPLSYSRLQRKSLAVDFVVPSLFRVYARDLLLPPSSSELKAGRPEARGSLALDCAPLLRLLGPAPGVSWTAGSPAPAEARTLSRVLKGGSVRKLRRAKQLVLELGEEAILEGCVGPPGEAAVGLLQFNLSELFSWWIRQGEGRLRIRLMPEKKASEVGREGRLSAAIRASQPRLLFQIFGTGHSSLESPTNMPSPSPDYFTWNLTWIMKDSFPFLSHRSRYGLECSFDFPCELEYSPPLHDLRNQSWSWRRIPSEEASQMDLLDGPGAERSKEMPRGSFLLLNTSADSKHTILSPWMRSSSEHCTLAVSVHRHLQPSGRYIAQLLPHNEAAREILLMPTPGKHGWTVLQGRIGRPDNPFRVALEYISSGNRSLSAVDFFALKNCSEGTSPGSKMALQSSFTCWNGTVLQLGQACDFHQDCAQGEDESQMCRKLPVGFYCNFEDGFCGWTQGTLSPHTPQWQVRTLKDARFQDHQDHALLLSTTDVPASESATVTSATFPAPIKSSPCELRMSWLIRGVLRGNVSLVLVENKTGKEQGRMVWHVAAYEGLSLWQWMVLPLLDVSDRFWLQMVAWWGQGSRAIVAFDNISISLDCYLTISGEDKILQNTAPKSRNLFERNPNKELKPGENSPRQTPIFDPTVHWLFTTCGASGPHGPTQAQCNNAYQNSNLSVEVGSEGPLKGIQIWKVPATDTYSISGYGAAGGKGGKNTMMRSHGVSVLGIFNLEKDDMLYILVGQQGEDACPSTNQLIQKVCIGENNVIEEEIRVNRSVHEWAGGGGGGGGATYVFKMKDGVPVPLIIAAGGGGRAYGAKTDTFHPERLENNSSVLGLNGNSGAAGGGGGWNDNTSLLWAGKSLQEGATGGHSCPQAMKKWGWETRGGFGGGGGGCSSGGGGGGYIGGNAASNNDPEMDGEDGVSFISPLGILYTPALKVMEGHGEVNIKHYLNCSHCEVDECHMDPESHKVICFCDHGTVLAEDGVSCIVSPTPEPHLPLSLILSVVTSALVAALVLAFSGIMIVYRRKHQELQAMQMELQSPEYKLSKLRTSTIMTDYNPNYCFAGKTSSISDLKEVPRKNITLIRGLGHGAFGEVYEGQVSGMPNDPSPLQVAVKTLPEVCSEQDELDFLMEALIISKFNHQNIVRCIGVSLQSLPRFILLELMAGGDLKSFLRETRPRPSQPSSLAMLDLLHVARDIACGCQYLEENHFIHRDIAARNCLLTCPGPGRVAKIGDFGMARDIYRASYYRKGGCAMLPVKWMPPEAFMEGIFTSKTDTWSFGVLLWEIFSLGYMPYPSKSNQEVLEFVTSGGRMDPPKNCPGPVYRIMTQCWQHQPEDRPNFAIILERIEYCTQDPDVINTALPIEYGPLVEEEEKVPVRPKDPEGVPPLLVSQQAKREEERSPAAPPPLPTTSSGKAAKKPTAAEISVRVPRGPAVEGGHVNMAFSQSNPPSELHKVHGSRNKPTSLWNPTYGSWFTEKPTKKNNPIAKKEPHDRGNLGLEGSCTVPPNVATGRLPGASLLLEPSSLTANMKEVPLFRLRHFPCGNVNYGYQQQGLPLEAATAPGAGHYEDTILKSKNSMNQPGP

| IC50 (ALK; [1]) [nM] | IC50 (JAK2; [2]) [nM] | IC50 (ALK; ALK Kinase Inhibition) [nM] | IC50 (JAK2; JAK2 Kinase Inhibition) [nM] | Structure (SMILES) |
| --- | --- | --- | --- | --- |
| 100 to 1000 | < 100 |  |  | CN1CCC(c2ccc(Nc3ncc4ccc(-c5cccc(S(=O)(=O)N(C)C)c5)n4n3)cc2)CC1 [Example 902, N,N-Dimethyl-3-{2-[4-(1-methyl-piperidin-4-yl)phenylamino]-pyrrolo[2,1-f][1,2,4]triazin-7-yl}-benzenesulfonamide] |
| 1000 to 10000 | < 100 |  |  | CC(=O)Nc1cccc(Nc2ncc3ccc(-c4cccc(NCCS(C)(=O)=O)c4)n3n2)c1 [Example 893, N-(3-{7-[3-(2-Methanesulfonyl-ethylamino)-phenyl]-pyrrolo[2,1-f][1,2,4]triazin-2-ylamino}-phenyl)-acetamide] |
|  |  | 100 to 1000 | < 100 | c1cncc(-c2ccc3cnc(Nc4ccc(OCCN5CCOCC5)cc4)nn23)c1 [Example 125, [4-(2-Morpholin-4-yl-ethoxy)-phenyl]-(7-pyridin-3-yl-pyrrolo[2,1-f][1,2,4]triazin-2-yl)-amine] |
|  |  | 100 to 1000 | < 100 | COc1ccccc1-c1ccc2cnc(Nc3ccc(C(=O)N4CCN(C)CC4)cc3)nn12 [Example 318, {4-[7-(2-Methoxy-phenyl)-pyrrolo[2,1-f][1,2,4]triazin-2-ylamino]-phenyl}-(4-methyl-piperazin-1-yl)-methanone] |
| < 100 | < 100 |  |  | COc1cccc(F)c1-c1ccc2cnc(Nc3ccc(C4CCN(CC(N)=O)CC4)cc3)nn12 [Example 1353, 2-(4-{4-[7-(2-Fluoro-6-methoxy-phenyl)-pyrrolo[2,1-f][1,2,4]triazin-2-ylamino]-phenyl}-piperidin-1-yl)-acetamide] |
| < 100 | 100 to 1000 |  |  | COc1cc(C2CCN(C(=O)C(C)(C)N)CC2)ccc1Nc1ncc2ccc(-c3ccccc3N(C)S(C)(=O)=O)n2n1 [Example 822, N-[2-(2-{4-[1-(2-Amino-2-methyl-propionyl)-piperidin-4-yl]-2-methoxy-phenylamino}-pyrrolo[2,1-f][1,2,4]triazin-7-yl)-phenyl]-N-methyl-methanesulfonamide] |
|  |  | < 100 | 100 to 1000 | COc1cc(N2CCN(C3CCOCC3)CC2)ccc1Nc1ncc2ccc(-c3ccccc3N(C)S(C)(=O)=O)n2n1 [Example 1471, N-[2-(2-{2-Methoxy-4-[4-(tetrahydro-pyran-4-yl)-piperazin-1-yl]-phenylamino}-pyrrolo[2,1-f][1,2,4]triazin-7-yl)-phenyl]-N-methyl-methanesulfonamide] |
| 1000 to 10000 | < 100 |  |  | Cc1nc2cc(Nc3ncc4ccc(-c5cccc(S(=O)(=O)NC(C)(C)C)c5)n4n3)ccc2o1 [Example 600, N-tert-Butyl-3-[2-(2-methyl-benzoxazol-5-ylamino)-pyrrolo[2,1-f][1,2,4]triazin-7-yl]-benzenesulfonamide] |
|  |  | 1000 to 10000 | 100 to 1000 | COc1ccc(Cl)cc1-c1ccc2cnc(-n3cnc4cnccc43)nn12 [Example 323, 1-[7-(5-Chloro-2-methoxy-phenyl)-pyrrolo[2,1-f][1,2,4]triazin-2-yl]-1H-imidazo[4,5-c]pyridine] |
| 100 to 1000 | < 100 |  |  | Cn1cnc2ccc(Nc3ncc4ccc(-c5ccccc5NS(C)(=O)=O)n4n3)cc21 [Example 1310, N-{2-[2-(3-Methyl-3H-benzoimidazol-5-ylamino)-pyrrolo[2,1-f][1,2,4]triazin-7-yl]-phenyl}-methanesulfonamide] |
| 100 to 1000 | < 100 |  |  | CN(c1ccccc1-c1ccc2cnc(Nc3ccc4c(c3)CCN(CC(N)=O)C4)nn12)S(C)(=O)=O [Example 918, 2-(6-{7-[2-(Methanesulfonyl-methyl-amino)-phenyl]-pyrrolo[2,1-f][1,2,4]triazin-2-ylamino}-3,4-dihydro-1H-isoquinolin-2-yl)-acetamide] |
|  |  | 100 to 1000 | < 100 | COc1ccccc1-c1ccc2cnc(Nc3ccc(C(C)C)c(NC(C)=O)c3)nn12 [Example 301, N-{2-Isopropyl-5-[7-(2-methoxy-phenyl)-pyrrolo[2,1-f][1,2,4]triazin-2-ylamino]-phenyl}-acetamide] |
| < 100 | 100 to 1000 |  |  | COc1cc2c(cc1Nc1ncc3ccc(-c4ccccc4N(C)S(C)(=O)=O)n3n1)CN(C(=O)CN)C2 [Example 879, N-(2-{2-[2-(2-Amino-acetyl)-6-methoxy-2,3-dihydro-1H-isoindol-5-ylamino]-pyrrolo[2,1-f][1,2,4]triazin-7-yl}-phenyl)-N-methyl-methanesulfonamide] |
| < 100 | 1000 to 10000 |  |  | COc1cc(CN2CCC(O)CC2)ccc1Nc1ncc2ccc(-c3ccccc3N(C)S(C)(=O)=O)n2n1 [Example 1234, N-(2-{2-[4-(4-Hydroxy-piperidin-1-ylmethyl)-2-methoxy-phenylamino]-pyrrolo[2,1-f][1,2,4]triazin-7-yl}-phenyl)-N-methyl-methanesulfonamide] |
| 100 to 1000 | > 10000 |  |  | COc1cc(-c2cccnc2)ccc1Nc1ncc2ccc(-c3ccccc3N(C)S(C)(=O)=O)n2n1 [Example 808, N-{2-[2-(2-Methoxy-4-pyridin-3-yl-phenylamino)-pyrrolo[2,1-f][1,2,4]triazin-7-yl]-phenyl}-N-methyl-methanesulfonamide] |
| < 100 | < 100 |  |  | NC(=O)CN1CCC(c2ccc(Nc3ncc4ccc(-c5cccc(S(=O)(=O)NC6CC6)c5)n4n3)cc2)CC1 [Example 930, 2-(4-{4-[7-(3-Cyclopropylsulfamoyl-phenyl)-pyrrolo[2,1-f][1,2,4]triazin-2-ylamino]-phenyl}-piperidin-1-yl)-acetamide] |
| > 10000 | < 100 |  |  | COc1ccc(Nc2ncc3cc4ccccc4n3n2)cc1 [Example 752, (4-Methoxy-phenyl)-[1,2,4]triazino[1,6-a]indol-2-yl-amine] |
| < 100 | < 100 |  |  | COc1cc(N2CCC(N3CCOCC3)CC2)ccc1Nc1ncc2ccc(-c3ccc(F)cc3OC)n2n1 [Example 510, [7-(4-Fluoro-2-methoxy-phenyl)-pyrrolo[2,1-f][1,2,4]triazin-2-yl]-[2-methoxy-4-(4-morpholin-4-yl-piperidin-1-yl)-phenyl]-amine] |
| 100 to 1000 | < 100 |  |  | CS(=O)(=O)Nc1cccc(-c2ccc3cnc(Nc4ccc(CN5CCS(=O)(=O)CC5)cc4)nn23)c1 [Example 1052, N-(3-{2-[4-(1,1-Dioxo-1 $1(6)-thiomorpholin-4-ylmethyl)-phenylamino]-pyrrolo[2,1-f][1,2,4]triazin-7-yl}-phenyl)-methanesulfonamide] |
|  |  | > 10000 | < 100 | CS(=O)(=O)c1ccc(-c2ccc3cnc(Nc4ccc(N5CCOCC5)c(F)c4)nn23)cc1 [Example 189, (3-Fluoro-4-morpholin-4-yl-phenyl)-[7-(4-methanesulfonyl-phenyl)-pyrrolo[2,1-f][1,2,4]triazin-2-yl]-amine] |
| > 10000 | 1000 to 10000 |  |  | CN(C)c1cccc(CNc2ncc3c(-c4ccc(F)cc4)ccn3n2)c1 [Example 729, (3-Dimethylamino-benzyl)-[5-(4-fluoro-phenyl)-pyrrolo[2,1-f][1,2,4]triazin-2-yl]-amine] |

| Structure (SMILES) | IC50 (ALK; [1]) [nM] | IC50 (JAK2; [2]) [nM] | IC50 (ALK; ALK Kinase Inhibition) [nM] | IC50 (JAK2; JAK2 Kinase Inhibition) [nM] |
| --- | --- | --- | --- | --- |
| COCCN1CC[C@](O)(c2ccc(Nc3ncc4ccc(-c5ccccc5N(C)S(C)(=O)=O)n4n3)c(OC)c2)[C@@H](O)C1 (racemic) [Example 846, (±)-N-[2-(2-{4-[(3S,4S)-3,4-Dihydroxy-1-(2-methoxy-ethyl)-piperidin-4-yl]-2-methoxy-phenylamino}-pyrrolo[2,1-f][1,2,4]triazin-7-yl)-phenyl]-N-methyl-methanesulfonamide] | < 100 | 100 to 1000 |  |  |
